Assay results published in US11419902B2, “Compositions comprising bacterial strains” (4D Pharma Research Limited, priority 2018, dated 2022).

Experiments:
HDAC [1] = test: HDAC inhibition on whole HT-29 cells; format: cell-based
Method: (§1) Pure cultures of bacteria were grown anaerobically in YCFA+ broth until they reached their stationary growth phase. Cultures were centrifuged at 5,000×g for 5 minutes and the cell-free supernatant (CFS) was filtered using a […] (Millipore, UK). 1 mL aliquots of the CFS were stored at −80° C. until use. Sodium butyrate, hexanoic and valeric acid were obtained from Sigma Aldrich (UK) and suspensions were prepared in YCFA+ broth.
(§2) To investigate which metabolites were responsible for the strain-induced HDAC inhibition, different concentrations of hexanoic acid, valeric acid and sodium butyrate were measured for their HDAC inhibition on whole HT-29 cells and on HT-29 cell lysate.

HDAC [2] = test: HDAC inhibition on HT-29 cell lysate; format: biochemical
Method: as §1, §2

IL-8 [3] = test: IL-8 secretion in U373 cells treated with SCFAs or supernatant fractions (ELISA); format: cell-based, Human; conditions: U373 cells pre-treated 1 h with 1 μg/ml LPS, increasing concentrations
Method: Human glioblastoma astrocytoma cell line (U373), were maintained in 25 ml MEME 4.5 g/L D-glucose supplemented with 10% heat-inactivated FBS, 4 mM L-Glutamine, 100 U/ml penicillin, 100 μg/ml streptomycin and 5 μg/ml plasmocin, 1% Non-Essential Amino Acids, 1% Sodium Pyruvate (referred to as full growth media).
U373 cells were prepared as described above. Cells were pre-treated for 1 h with 1 μg/ml LPS indicated above and incubated at 37° C. and 5% CO2. After 1 h pre-incubation, cells were removed from CO2 incubator and treated with increasing concentration of fresh prepared Sodium Butyrate (SB), Sodium Valerate (SV) and Hexanoic Acid (HA).
U373 cells were prepared as described above. Cells were pre-treated for 1 h with 1 μg/ml LPS as indicated above. Afterwards, cells were removed from CO2 incubator and treated with 100 μl of the different fractions. Fractions from media were used as controls. Cell-free supernatants were collected 24 h after treatment and analysed by ELISA for IL-8 secretion (as outlined above).

[4] = system: SKMEL31 melanoma cell line; test: Soft agar growth of SKMEL31 cell line; format: cell-based; conditions: SKMEL31, added to MRx0029
Method: (§3) A mixture of 25 μL prewarmed (37° C.) 2× appropriate growth medium (EMEM for melanoma cell lines; DMEM high glucose for HT29) containing 20% FBS, 4 mM L-Glu, 2×NEAA, 0.6% sodium bicarbonate, 200 U/mL penicillin/streptomycin (Invitrogen), and 25 μL prewarmed (47° C.) 1.2% Noble Agar (A5431; Sigma Aldrich) were plated onto each well of a 96-well microplate to serve as a prelayer for the assay. Ten microliters of cell suspensions containing 0-2×10^3 cells were mixed with 25 μL 2× growth media and 35 μL 0.8% Noble Agar in a 96-well round-bottom polypropylene microplate and transferred to the 96-well microplate containing the solidified prelayers. […] They left to grow in the humidified 37° C. incubator with 5% CO2 for 1-2 weeks before soft agar growth was scored using the CytoSelect 96 well cell transformation assay (CBA-130; Cell Biolabs) according to the manufacturer's protocol. Cell growth was measured using a Tecan Infinite F200 Pro Series Multi-Well Plate Reader (Tecan Biosystems), with excitation at 485 nm and emission at 530 nm. […]
(§4) The effects of the following treatments were assessed on the SKMEL31 melanoma cell line (heterozygous for BRAF V600E): (1) MRx0029; (2) Vemurafenib (VEMU) in YFCA+ medium; (3) VEMU and MRx0029; (4) Azacytidine-C (Aza-c) in YFCA+ medium; (5) Aza-c and MRx0029; (6) VEMU, Aza-c and MRx0029.

[5] = system: SKMEL31 melanoma cell line; test: Clonogenic survival of SKMEL31 cell line; format: cell-based; conditions: SKMEL31, added to MRx0029
Method: (§5) Cells were trypsinized and 200 cells/well were seeded in 12-well plates. After 48 h cells were treated with the appropriate drugs in absence (YCFA+) or presence of 10% bacterial supernatant and were re-fed every three days. On day 21 after seeding, cells were fixed in ice-cold methanol and stained with Crystal Violet blue. […] were counted and survival fraction was calculated as number of colonies divided by the number of plated cells (plating efficiency) of treated divided by the plating efficiency of control.
as §4

451Lu melanoma cell line = test: Soft agar growth of 451Lu cell line; format: cell-based; conditions: added to MRx0029
Method: as §3
The effects of the following treatments were assessed on the 451Lu melanoma cell line (V600E oncogenic mutation in BRAF): (1) MRx0029; (2) Vemurafenib (VEMU) in YFCA+ medium; (3) VEMU and MRx0029; (4) Azacytidine-C (Aza-c) in YFCA+ medium; (5) Aza-c and MRx0029; (6) VEMU, Aza-c and MRx0029.

[6] = system: HT29 colorectal cancer cell line; test: Clonogenic survival of HT29 cell line; format: cell-based; conditions: HT29, added to MRx0029
Method: as §5
The effects of the following treatments were assessed on the HT29 colorectal cancer cell line (V600E oncogenic mutation in BRAF): (1) MRx0029; (2) Vemurafenib (VEMU) in YFCA+ medium; (3) VEMU and MRx0029; (4) Azacytidine-C (Aza-c) in YCFA+ medium; (5) Aza-c and MRx0029; (6) VEMU, Aza-c and MRx0029.

IL-8 [7] = test: IL-8 secretion by differentiated HT29-mtx cells; format: cell-based; conditions: 24 h, vs untreated and YCFA+-treated cells
Text: The ability of MRx0029 to cause any intestinal barrier dysfunction was investigated. HT29-mtx epithelial, mucin-producing cell monolayers were used as an in vitro model to evaluate gut barrier disruption and immune stimulation following treatment with MRx0029.

Structure (SMILES): CCCC(=O)[O-].[Na+] [sodium butyrate]
- HDAC inhibition on whole HT-29 cells (HDAC [1]): significant (P<0.05) inhibition of HDAC activity
- HDAC inhibition on HT-29 cell lysate (HDAC [2]): significant (P<0.05) inhibition of HDAC activity
- LPS-induced secretion of IL-8 (IL-8 [3]): increased LPS-induced secretion of IL-8

Structure (SMILES): CCCCCC(=O)O [hexanoic acid]
- HDAC inhibition on whole HT-29 cells (HDAC [1]): did not show significant inhibitory activity
- HDAC inhibition on HT-29 cell lysate (HDAC [2]): did not show significant inhibitory activity
- LPS-induced secretion of IL-8 (IL-8 [3]): did not inhibit IL-8 secretion

Structure (SMILES): Nc1ncn([C@@H]2O[C@H](CO)[C@@H](O)[C@H]2O)c(=O)n1 [Aza-c, Azacytidine-C]
- effect on soft agar growth inhibition by MRx0029 [4]: improved
- effect on clonogenic survival inhibition by MRx0029 [5]: improved
- effect on soft agar growth inhibition by MRx0029 (451Lu melanoma cell line): enhanced soft agar growth inhibition by MRx0029
- effect on inhibition of clonogenic survival by MRx0029 [6]: improved the effects of MRx0029 in inhibiting clonogenic survival

Structure (SMILES): CCCCCCCCCCCCCC(=O)O[C@@H]1[C@@H](C)[C@@]2(O)[C@@H](C=C(CO)C[C@]3(O)C(=O)C(C)=C[C@@H]23)[C@@H]2C(C)(C)[C@]12OC(C)=O [PMA, phorbol 12-myristate-13-acetate, reference compound]
- secretion of IL-8 (IL-8 [7]): secreted a significant amount of IL-8

Structure (SMILES): CCCCC(=O)O [valeric acid]
- HDAC inhibition on whole HT-29 cells (HDAC [1]): inhibited HDAC activity
- HDAC inhibition on HT-29 cell lysate (HDAC [2]): inhibited HDAC activity

Structure (SMILES): CCCCC(=O)[O-].[Na+] [SV, sodium valerate]
- LPS-induced secretion of IL-8 (IL-8 [3]): increased LPS-induced secretion of IL-8
